Source: US9580444B2, “Polycyclic pyrazolinone derivative and herbicide comprising same as effective component thereof” (priority 2013, dated 2017)

Experiments:
Experiment in all cases: Test Example-1: herbicidal effect by a treatment before weeds are generated under submerged conditions
Assay type in all cases: in vivo
Details in all cases: 500 g a.i/ha, pre-emergence treatment, about 15 days after treatment, score 0-5
[1] = test system: Eleocharis acicularis (needle spikerush)
Experimental: (§1) Using the formulation prepared according to the methods described above, the herbicidal effect of the bicyclic pyrazolinone derivative of the invention according to the methods shown in Test Examples below was examined. The herbicidal effect with respect to the test weeds or the phytotoxicity with respect to the test crops was examined according to the following criteria, and evaluated in six stage scores of 0 to 5.
(§2) A plastic cup of 30 cm^2 was filled with paddy soil, soil puddling was performed, seeds of Echinochloa oryzicola (barnyard grass), Cyperus difformis (smallflower umbrella plant), Monochoria vaginalis (monochoria), Scirpus juncoides (bulrush), and Eleocharis acicularis (needle spikerush), and Lindernia procumbens (common false pimpernel), Rotala indica (indian toothcup), Elatine triandra (waterwort) as other annual broad leaf weeds were seeded therein, and kept in a submerged state. A wettable powder or an emulsifiable concentrate of the compound of the present invention prepared according to Formulation Example was diluted on the weed seeding day, and a submersing treatment was performed so as to be a predetermined dosage. The herbicidal effect with respect to the test weeds about 15 days after the treatment was evaluated according to the evaluation criteria in six stages of 0 to 5 described above.

[2] = test system: Scirpus juncoides (bulrush)
Experimental: as §1, §2

[3] = test system: other annual broad leaf weeds (Lindernia procumbens, Rotala indica, Elatine triandra)
Experimental: as §1, §2

[4] = test system: Cyperus difformis (smallflower umbrella plant)
Experimental: as §1, §2

[5] = test system: Echinochloa oryzicola (barnyard grass)
Experimental: as §1, §2

[6] = test system: Monochoria vaginalis (monochoria)
Experimental: as §1, §2

| Compound | Herbicidal effect Eleocharis acicularis [1] | Herbicidal effect Scirpus juncoides [2] | Herbicidal effect Broadleaf weed [3] | Herbicidal effect Cyperus difformis [4] | Herbicidal effect Echinochloa oryzicola [5] | Herbicidal effect Monochoria vaginalis [6] |
| --- | --- | --- | --- | --- | --- | --- |
| CC(C)CCOc1cc(-c2c(Cl)n3n(c2=O)CCCC3)c(F)cc1F [Example 1-93] | 5 (Herbicidal effect/phytotoxicity was 90% or greater) | 5 (Herbicidal effect/phytotoxicity was 90% or greater) | 5 (Herbicidal effect/phytotoxicity was 90% or greater) | 5 (Herbicidal effect/phytotoxicity was 90% or greater) | 5 (Herbicidal effect/phytotoxicity was 90% or greater) | 5 (Herbicidal effect/phytotoxicity was 90% or greater) |
| O=c1c(-c2cc(OC3CCCC3)c(F)cc2F)c(Cl)n2n1CCCC2 [Example 1-98] | 5 (Herbicidal effect/phytotoxicity was 90% or greater) | 5 (Herbicidal effect/phytotoxicity was 90% or greater) | 5 (Herbicidal effect/phytotoxicity was 90% or greater) | 5 (Herbicidal effect/phytotoxicity was 90% or greater) | 5 (Herbicidal effect/phytotoxicity was 90% or greater) | 5 (Herbicidal effect/phytotoxicity was 90% or greater) |
| C=C(C)COc1cc(-c2c(Cl)n3n(c2=O)CCCC3)c(F)cc1F [Example 1-106] | 5 (Herbicidal effect/phytotoxicity was 90% or greater) | 5 (Herbicidal effect/phytotoxicity was 90% or greater) | 5 (Herbicidal effect/phytotoxicity was 90% or greater) | 5 (Herbicidal effect/phytotoxicity was 90% or greater) | 5 (Herbicidal effect/phytotoxicity was 90% or greater) | 5 (Herbicidal effect/phytotoxicity was 90% or greater) |
| C=C(C)COc1cc(-c2c(Cl)n3n(c2=O)CCCC3)c(F)cc1F [Example 1-109] | 5 (Herbicidal effect/phytotoxicity was 90% or greater) | 5 (Herbicidal effect/phytotoxicity was 90% or greater) | 5 (Herbicidal effect/phytotoxicity was 90% or greater) | 5 (Herbicidal effect/phytotoxicity was 90% or greater) | 5 (Herbicidal effect/phytotoxicity was 90% or greater) | 5 (Herbicidal effect/phytotoxicity was 90% or greater) |
| O=c1c(-c2cc(OC3C=CCCC3)c(F)cc2F)c(Cl)n2n1CCCC2 (stereo not drawn) [Example 1-112] | 5 (Herbicidal effect/phytotoxicity was 90% or greater) | 5 (Herbicidal effect/phytotoxicity was 90% or greater) | 5 (Herbicidal effect/phytotoxicity was 90% or greater) | 5 (Herbicidal effect/phytotoxicity was 90% or greater) | 5 (Herbicidal effect/phytotoxicity was 90% or greater) | 5 (Herbicidal effect/phytotoxicity was 90% or greater) |
| O=c1c(-c2ccc(Cl)cc2F)c(Cl)n2n1CCOCC2 [Example 1-129] | 5 (Herbicidal effect/phytotoxicity was 90% or greater) | 5 (Herbicidal effect/phytotoxicity was 90% or greater) | 5 (Herbicidal effect/phytotoxicity was 90% or greater) | 5 (Herbicidal effect/phytotoxicity was 90% or greater) | 5 (Herbicidal effect/phytotoxicity was 90% or greater) | 5 (Herbicidal effect/phytotoxicity was 90% or greater) |
| O=c1c(-c2cc(OC(F)F)c(Cl)cc2F)c(Cl)n2n1CCCC2 [Example 1-143] | 5 (Herbicidal effect/phytotoxicity was 90% or greater) | 5 (Herbicidal effect/phytotoxicity was 90% or greater) | 5 (Herbicidal effect/phytotoxicity was 90% or greater) | 5 (Herbicidal effect/phytotoxicity was 90% or greater) | 5 (Herbicidal effect/phytotoxicity was 90% or greater) | 5 (Herbicidal effect/phytotoxicity was 90% or greater) |
| CC(C)CCOc1cc(-c2c(Cl)n3n(c2=O)CCCC3)c(F)cc1Cl [Example 1-159] | 5 (Herbicidal effect/phytotoxicity was 90% or greater) | 5 (Herbicidal effect/phytotoxicity was 90% or greater) | 5 (Herbicidal effect/phytotoxicity was 90% or greater) | 5 (Herbicidal effect/phytotoxicity was 90% or greater) | 5 (Herbicidal effect/phytotoxicity was 90% or greater) | 5 (Herbicidal effect/phytotoxicity was 90% or greater) |
| CC(C)(C)OC(=O)COc1cc(-c2c(Cl)n3n(c2=O)CCCC3)c(F)cc1Cl [Example 1-165] | 5 (Herbicidal effect/phytotoxicity was 90% or greater) | 5 (Herbicidal effect/phytotoxicity was 90% or greater) | 5 (Herbicidal effect/phytotoxicity was 90% or greater) | 5 (Herbicidal effect/phytotoxicity was 90% or greater) | 5 (Herbicidal effect/phytotoxicity was 90% or greater) | 5 (Herbicidal effect/phytotoxicity was 90% or greater) |
| COC(=O)C(C)Oc1cc(-c2c(Cl)n3n(c2=O)CCCC3)c(F)cc1Cl (stereo not drawn) [Example 1-166] | 5 (Herbicidal effect/phytotoxicity was 90% or greater) | 5 (Herbicidal effect/phytotoxicity was 90% or greater) | 5 (Herbicidal effect/phytotoxicity was 90% or greater) | 5 (Herbicidal effect/phytotoxicity was 90% or greater) | 5 (Herbicidal effect/phytotoxicity was 90% or greater) | 5 (Herbicidal effect/phytotoxicity was 90% or greater) |
| O=c1c(-c2cc(OCC3CCCC3)c(Cl)cc2F)c(Cl)n2n1CCCC2 [Example 1-186] | 5 (Herbicidal effect/phytotoxicity was 90% or greater) | 5 (Herbicidal effect/phytotoxicity was 90% or greater) | 5 (Herbicidal effect/phytotoxicity was 90% or greater) | 5 (Herbicidal effect/phytotoxicity was 90% or greater) | 5 (Herbicidal effect/phytotoxicity was 90% or greater) | 5 (Herbicidal effect/phytotoxicity was 90% or greater) |
| C=CC(F)(F)Oc1cc(-c2c(Cl)n3n(c2=O)CCCC3)c(F)cc1Cl [Example 1-206] | 5 (Herbicidal effect/phytotoxicity was 90% or greater) | 5 (Herbicidal effect/phytotoxicity was 90% or greater) | 5 (Herbicidal effect/phytotoxicity was 90% or greater) | 5 (Herbicidal effect/phytotoxicity was 90% or greater) | 5 (Herbicidal effect/phytotoxicity was 90% or greater) | 5 (Herbicidal effect/phytotoxicity was 90% or greater) |
| O=c1c(-c2cc(OC3C=CCCC3)c(Cl)cc2F)c(Cl)n2n1CCCC2 (stereo not drawn) [Example 1-232] | 5 (Herbicidal effect/phytotoxicity was 90% or greater) | 5 (Herbicidal effect/phytotoxicity was 90% or greater) | 5 (Herbicidal effect/phytotoxicity was 90% or greater) | 5 (Herbicidal effect/phytotoxicity was 90% or greater) | 5 (Herbicidal effect/phytotoxicity was 90% or greater) | 5 (Herbicidal effect/phytotoxicity was 90% or greater) |
| O=c1c(-c2cc(Oc3c(F)cc(C(F)(F)F)cc3Cl)c(Cl)cc2F)c(Cl)n2n1CCCC2 [Example 1-254] | 5 (Herbicidal effect/phytotoxicity was 90% or greater) | 5 (Herbicidal effect/phytotoxicity was 90% or greater) | 5 (Herbicidal effect/phytotoxicity was 90% or greater) | 5 (Herbicidal effect/phytotoxicity was 90% or greater) | 5 (Herbicidal effect/phytotoxicity was 90% or greater) | 5 (Herbicidal effect/phytotoxicity was 90% or greater) |
| COC(=O)C(Cl)Cc1cc(-c2c(Cl)n3n(c2=O)CCCC3)c(F)cc1Cl (stereo not drawn) [Example 1-257] | 5 (Herbicidal effect/phytotoxicity was 90% or greater) | 5 (Herbicidal effect/phytotoxicity was 90% or greater) | 5 (Herbicidal effect/phytotoxicity was 90% or greater) | 5 (Herbicidal effect/phytotoxicity was 90% or greater) | 5 (Herbicidal effect/phytotoxicity was 90% or greater) | 5 (Herbicidal effect/phytotoxicity was 90% or greater) |
